In PMC10824666 (Nature Cancer, 2023):
Like-named read-outs stand apart in the source and are kept apart here. Values belong to the molecule of their own block, whether it stands above or below them.

Tests used:
Assay in all cases: biochemical
Set-up in all cases: Eurofins DiscoverX kinase panel, competitive binding assay at 1 uM, percent of DMSO control
Settings in all cases: competitive binding, percent of DMSO control
MAP2K3 = molecular target: T1, MAP2K3 (Homo sapiens, UniProt P46734)
T1 sequence (P46734 1-347): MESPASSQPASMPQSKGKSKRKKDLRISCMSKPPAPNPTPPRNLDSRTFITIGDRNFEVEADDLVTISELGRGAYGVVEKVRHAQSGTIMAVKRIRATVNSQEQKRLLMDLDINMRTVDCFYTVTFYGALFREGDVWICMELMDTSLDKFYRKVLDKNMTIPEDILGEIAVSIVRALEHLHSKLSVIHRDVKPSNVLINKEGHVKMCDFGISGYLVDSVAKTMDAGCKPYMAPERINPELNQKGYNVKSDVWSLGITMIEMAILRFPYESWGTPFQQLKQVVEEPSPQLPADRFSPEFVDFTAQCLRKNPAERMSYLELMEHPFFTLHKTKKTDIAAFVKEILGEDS
Method in brief: (§1)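 Single-point profiling at 1 µM compound in a competition-binding format against 96 kinases, read out as POC relative to control; n = 1.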

TIE2 = molecular target: T2, TIE2 (Homo sapiens, UniProt Q02763)
T2 construct: gene TEK
T2 sequence (Q02763 whole entry): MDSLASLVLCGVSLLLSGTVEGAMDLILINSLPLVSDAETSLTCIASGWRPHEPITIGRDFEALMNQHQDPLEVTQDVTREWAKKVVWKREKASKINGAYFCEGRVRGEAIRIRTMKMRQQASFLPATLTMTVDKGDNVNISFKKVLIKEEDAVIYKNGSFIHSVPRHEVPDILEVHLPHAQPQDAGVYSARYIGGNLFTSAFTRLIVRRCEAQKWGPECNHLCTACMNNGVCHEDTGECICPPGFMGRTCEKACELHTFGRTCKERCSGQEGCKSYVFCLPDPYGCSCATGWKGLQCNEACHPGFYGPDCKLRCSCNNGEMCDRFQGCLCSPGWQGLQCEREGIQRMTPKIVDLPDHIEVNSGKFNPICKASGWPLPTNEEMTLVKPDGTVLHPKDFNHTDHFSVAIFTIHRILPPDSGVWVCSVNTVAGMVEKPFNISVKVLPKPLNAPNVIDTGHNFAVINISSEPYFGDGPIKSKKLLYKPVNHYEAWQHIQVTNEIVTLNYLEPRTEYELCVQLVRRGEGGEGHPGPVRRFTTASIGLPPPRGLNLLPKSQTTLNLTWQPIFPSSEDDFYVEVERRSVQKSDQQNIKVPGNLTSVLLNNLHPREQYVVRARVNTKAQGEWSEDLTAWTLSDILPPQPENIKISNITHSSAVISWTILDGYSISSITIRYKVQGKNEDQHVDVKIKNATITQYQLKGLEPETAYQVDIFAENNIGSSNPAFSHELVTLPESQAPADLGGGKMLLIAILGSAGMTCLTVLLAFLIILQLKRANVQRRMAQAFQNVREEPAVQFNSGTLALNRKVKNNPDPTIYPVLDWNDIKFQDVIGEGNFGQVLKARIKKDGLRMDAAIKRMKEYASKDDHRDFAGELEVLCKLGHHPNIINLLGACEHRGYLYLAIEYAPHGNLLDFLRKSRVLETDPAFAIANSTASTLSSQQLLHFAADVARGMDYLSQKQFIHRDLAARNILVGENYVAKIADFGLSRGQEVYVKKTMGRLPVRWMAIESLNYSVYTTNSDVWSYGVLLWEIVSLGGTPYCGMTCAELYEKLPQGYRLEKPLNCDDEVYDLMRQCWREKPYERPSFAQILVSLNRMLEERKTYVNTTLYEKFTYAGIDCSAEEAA
Method in brief: as §1

ERK2 = molecular target: T3, ERK2 (Homo sapiens, UniProt P28482)
T3 construct: gene MAPK1
T3 sequence (P28482 whole entry): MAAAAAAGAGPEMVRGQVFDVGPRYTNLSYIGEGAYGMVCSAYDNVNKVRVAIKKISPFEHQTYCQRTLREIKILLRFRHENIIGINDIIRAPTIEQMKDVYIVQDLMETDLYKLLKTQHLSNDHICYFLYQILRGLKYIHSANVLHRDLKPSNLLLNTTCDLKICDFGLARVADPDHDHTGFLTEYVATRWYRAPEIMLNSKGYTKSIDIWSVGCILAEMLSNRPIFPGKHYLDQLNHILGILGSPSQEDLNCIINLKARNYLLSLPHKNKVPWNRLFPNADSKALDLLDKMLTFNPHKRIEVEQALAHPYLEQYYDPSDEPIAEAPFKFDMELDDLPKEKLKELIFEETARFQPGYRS
Method in brief: as §1

Trk-A = molecular target: T4, Trk-A (Homo sapiens, UniProt P04629)
T4 construct: gene NTRK1
T4 sequence (P04629 whole entry): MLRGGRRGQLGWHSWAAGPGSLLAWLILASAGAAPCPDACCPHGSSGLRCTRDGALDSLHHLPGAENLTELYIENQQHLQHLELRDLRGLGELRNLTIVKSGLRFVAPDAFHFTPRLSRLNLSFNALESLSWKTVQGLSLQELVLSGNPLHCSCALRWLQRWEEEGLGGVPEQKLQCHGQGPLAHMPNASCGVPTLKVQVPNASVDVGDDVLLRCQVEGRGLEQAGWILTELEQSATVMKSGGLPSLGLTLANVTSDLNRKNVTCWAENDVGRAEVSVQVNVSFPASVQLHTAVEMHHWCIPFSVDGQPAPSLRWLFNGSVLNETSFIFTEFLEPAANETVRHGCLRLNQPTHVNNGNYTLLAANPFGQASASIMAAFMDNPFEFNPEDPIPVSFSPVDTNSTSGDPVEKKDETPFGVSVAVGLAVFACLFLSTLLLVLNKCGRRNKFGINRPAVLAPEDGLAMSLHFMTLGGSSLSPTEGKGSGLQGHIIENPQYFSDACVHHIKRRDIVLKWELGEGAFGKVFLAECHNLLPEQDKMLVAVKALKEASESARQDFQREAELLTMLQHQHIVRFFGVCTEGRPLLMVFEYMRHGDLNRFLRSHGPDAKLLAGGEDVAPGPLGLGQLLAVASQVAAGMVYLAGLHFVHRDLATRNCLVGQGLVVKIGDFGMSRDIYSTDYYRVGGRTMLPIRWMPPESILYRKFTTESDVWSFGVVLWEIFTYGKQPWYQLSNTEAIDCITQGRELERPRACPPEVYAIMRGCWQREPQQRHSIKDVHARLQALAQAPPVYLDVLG
Method in brief: as §1

DAPK1 = DAPK1 (Homo sapiens, UniProt P53355)
Chain of DAPK1 (P53355 whole entry): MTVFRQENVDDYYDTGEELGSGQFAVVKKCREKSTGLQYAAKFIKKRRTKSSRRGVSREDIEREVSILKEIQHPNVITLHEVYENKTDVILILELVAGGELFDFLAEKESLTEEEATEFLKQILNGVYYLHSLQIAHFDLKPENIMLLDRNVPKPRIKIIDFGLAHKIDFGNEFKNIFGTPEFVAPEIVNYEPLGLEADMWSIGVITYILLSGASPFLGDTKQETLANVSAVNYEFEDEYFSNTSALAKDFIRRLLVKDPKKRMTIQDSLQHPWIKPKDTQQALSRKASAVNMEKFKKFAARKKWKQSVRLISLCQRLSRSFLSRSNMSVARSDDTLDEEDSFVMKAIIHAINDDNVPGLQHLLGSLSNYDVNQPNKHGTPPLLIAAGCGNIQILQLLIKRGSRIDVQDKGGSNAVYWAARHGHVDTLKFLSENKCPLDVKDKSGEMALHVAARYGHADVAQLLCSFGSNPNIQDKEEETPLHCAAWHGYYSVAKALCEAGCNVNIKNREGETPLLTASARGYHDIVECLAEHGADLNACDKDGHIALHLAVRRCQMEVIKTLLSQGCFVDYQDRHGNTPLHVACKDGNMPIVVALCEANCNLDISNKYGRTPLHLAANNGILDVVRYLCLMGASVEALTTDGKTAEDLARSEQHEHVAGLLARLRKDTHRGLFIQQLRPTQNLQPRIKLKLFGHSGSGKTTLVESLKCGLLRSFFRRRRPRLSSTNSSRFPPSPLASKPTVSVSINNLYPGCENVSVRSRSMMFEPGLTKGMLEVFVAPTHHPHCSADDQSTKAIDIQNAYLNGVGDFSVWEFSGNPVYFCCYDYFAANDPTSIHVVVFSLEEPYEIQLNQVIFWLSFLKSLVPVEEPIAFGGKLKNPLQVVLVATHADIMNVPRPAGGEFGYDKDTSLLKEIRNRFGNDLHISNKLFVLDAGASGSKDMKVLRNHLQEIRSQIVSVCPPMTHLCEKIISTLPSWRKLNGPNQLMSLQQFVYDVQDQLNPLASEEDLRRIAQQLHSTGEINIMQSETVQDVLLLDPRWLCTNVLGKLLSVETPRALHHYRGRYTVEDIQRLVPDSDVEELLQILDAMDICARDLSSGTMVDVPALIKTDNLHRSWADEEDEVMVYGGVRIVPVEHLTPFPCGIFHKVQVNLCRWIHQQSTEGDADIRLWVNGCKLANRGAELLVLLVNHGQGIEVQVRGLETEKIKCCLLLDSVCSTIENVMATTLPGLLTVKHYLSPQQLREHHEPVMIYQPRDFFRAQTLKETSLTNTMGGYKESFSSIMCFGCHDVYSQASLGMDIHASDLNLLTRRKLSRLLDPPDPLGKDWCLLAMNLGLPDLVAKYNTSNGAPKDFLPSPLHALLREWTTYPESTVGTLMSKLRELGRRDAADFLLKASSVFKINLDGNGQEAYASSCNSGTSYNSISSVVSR
Method in brief: as §1

MST2 = molecular target: T5, MST2 (Homo sapiens, UniProt Q13188)
T5 construct: gene STK3
T5 sequence (Q13188 1-491): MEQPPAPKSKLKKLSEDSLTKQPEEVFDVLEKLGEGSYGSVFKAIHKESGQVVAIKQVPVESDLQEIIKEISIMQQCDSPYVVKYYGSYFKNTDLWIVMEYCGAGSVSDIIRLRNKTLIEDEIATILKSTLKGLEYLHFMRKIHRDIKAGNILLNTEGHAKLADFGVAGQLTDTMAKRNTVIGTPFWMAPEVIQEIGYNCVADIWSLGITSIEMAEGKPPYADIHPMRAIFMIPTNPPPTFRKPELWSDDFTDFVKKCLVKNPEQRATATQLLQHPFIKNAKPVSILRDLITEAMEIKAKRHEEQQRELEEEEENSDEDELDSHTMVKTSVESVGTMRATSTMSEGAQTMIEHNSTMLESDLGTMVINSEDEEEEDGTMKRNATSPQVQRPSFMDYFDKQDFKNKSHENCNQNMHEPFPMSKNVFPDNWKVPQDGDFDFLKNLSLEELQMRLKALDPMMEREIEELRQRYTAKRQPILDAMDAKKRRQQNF
Method in brief: as §1

[1] = read-out: Kinome Profiling performed by Eurofins DiscoverX / AM-1882, 1.0 µM / POC
[2] = read-out: Kinome Profiling performed by Eurofins DiscoverX / AM-5308, 1.0 µM / POC
[3] = read-out: Kinome Profiling performed by Eurofins DiscoverX / AM-0277, 1.0 µM / POC

remaining activity at 1 µM (MAP2K3; [1]): 67%
remaining activity at 1 µM (TIE2; [1]): 94.5%
remaining activity at 1 µM (ERK2; [1]): 100%
remaining activity at 1 µM (Trk-A; [1]): 54.5%
remaining activity at 1 µM (DAPK1; [1]): 87%
remaining activity at 1 µM (MST2; [1]): 91.5%
Compound: CC(C)(C)NS(=O)(=O)c1cccc(NC(=O)c2ccc(S(=O)(=O)NC(C)(C)C)cc2N2CCC3(CC2)CC3)c1 [AM-1882]

remaining activity at 1 µM (MAP2K3; [2]): 88.5%
remaining activity at 1 µM (TIE2; [2]): 90%
remaining activity at 1 µM (ERK2; [2]): 89%
remaining activity at 1 µM (Trk-A; [2]): 17.5%
remaining activity at 1 µM (DAPK1; [2]): 89.5%
remaining activity at 1 µM (MST2; [2]): 86.5%
Compound: C[C@@H]1CN(c2cccc(NC(=O)c3ccc(NS(=O)(=O)CCO)cc3N3CCC4(CC3)CC4)n2)CCO1 [AM-5308]

remaining activity at 1 µM (MAP2K3; [3]): 96%
remaining activity at 1 µM (TIE2; [3]): 77%
remaining activity at 1 µM (ERK2; [3]): 95%
remaining activity at 1 µM (Trk-A; [3]): 40%
remaining activity at 1 µM (DAPK1; [3]): 100%
remaining activity at 1 µM (MST2; [3]): 49%
Compound: CC(C)(CO)Nc1ccc(C(=O)Nc2cccc(S(=O)(=O)C3CCCC3)c2)c(N2CCC3(CC2)CC3)n1 [AM-0277]
